Results as given in paper PMC11129975, “A first-in-human phase I study of TAS-117, an allosteric AKT inhibitor, in patients with advanced solid tumors” (Cancer Chemotherapy and Pharmacology, 2024).

Test: Phase I safety: adverse events, adverse drug reactions, DLTs in patients with advanced solid tumors
Format: in vivo, human
Excerpt: This was a phase I, open-label, non-randomized, dose-escalating first-in-human study to evaluate the safety, pharmacokinetics, antitumor activity, pharmacodynamics, and pharmacogenomics of TAS-117 in patients with advanced solid tumors. The study had three phases: a dose escalation phase (DEP), a regimen modification phase (RMP), and a safety assessment phase (SAP). The treatment cycle on each regimen lasted 21 days. The DEP used an accelerated titration and 3 + 3 design. TAS-117 was administered orally once daily (QD) on an empty stomach (1 h before or 2 h after a meal). Dosing was determined based on a 4-week repeated oral-dose toxicology study in monkeys (data on file, Taiho Pharmaceutical Co., Ltd.); the highest non-severely toxic dose was 1.2 mg/kg/day, which was converted to 3.84 mg/body/day, or 2.4 mg/m^2. Therefore, the starting dose was determined to be ≤ 2.4 mg/m^2. At dose level 1, TAS-117 was administered at 2 mg QD (Day − 2), and the dose was increased to 4 mg QD after 2 days (Day 1). The RMP was conducted according to a 3 + 3 design. During this phase, the dose regimen was changed from QD administration to intermittent dosing of daily TAS-117 with 4 days on/3 days off. TAS-117 was administered on an empty stomach. Dose-limiting toxicities (DLTs) were evaluated in Cycle 1 of the DEP and RMP. […] The RD and regimen for the SAP were determined based on the safety, pharmacokinetics, pharmacodynamics, and antitumor activity profile determined in the DEP and RMP. During the SAP, the safety and preliminary efficacy profiles of TAS-117 were assessed at the RD and recommended regimen. Three cohorts were included in this assessment. Cohort 1 included patients with endometrial cancer with a PIK3CA mutation; cohort 2 included patients with endometrial cancer with an AKT1 mutation, AKT1 amplification, or AKT2 amplification; and cohort 3 included patients with ovarian clear cell carcinoma.
The primary endpoints were the proportion of patients who experienced DLTs in Cycle 1 of the DEP and RMP and the incidence of adverse events (AEs) and adverse drug reactions (ADRs) in the SAP. AEs and ADRs were coded using the Medical Dictionary for Regulatory Activities (MedDRA; version 24.1) and graded according to the National Cancer Institute Common Terminology Criteria for Adverse Events (CTCAE; version 4.03). Secondary endpoints were pharmacokinetic findings, changes in the ratio of phosphorylated PRAS40 (pPRAS40)/total PRAS40 from baseline, efficacy, and pharmacogenomics findings.

C[C@]1(O)C[C@@](N)(c2ccc(-c3nc4n(c3-c3ccccc3)COc3ccncc3-4)cc2)C1 [TAS-117]
Adverse drug reactions: Blood AP increased (Total N = 65, All grade): 7 (10.8) n (%) | Adverse drug reactions: Decreased appetite (Total N = 65, All grade): 10 (15.4) n (%) | Adverse drug reactions: Diarrhea (Total N = 65, All grade): 8 (12.3) n (%) | Adverse drug reactions: Dry skin (Total N = 65, All grade): 8 (12.3) n (%) | Adverse drug reactions: GGT increased (Total N = 65, All grade): 8 (12.3) n (%) | Adverse drug reactions: GI disorders (Total N = 65, All grade): 41 (63.1) n (%) | Adverse drug reactions: General disorders and administration site conditions (Total N = 65, All grade): 27 (41.5) n (%) | Adverse drug reactions: Hyperglycemia (Total N = 65, All grade): 30 (46.2) n (%) | Adverse drug reactions: Investigations (Total N = 65, All grade): 39 (60.0) n (%) | Adverse drug reactions: Metabolism and nutrition disorders (Total N = 65, All grade): 36 (55.4) n (%) | Adverse drug reactions: Nausea (Total N = 65, All grade): 16 (24.6) n (%) | Adverse drug reactions: Neutrophil count decreased (Total N = 65, All grade): 21 (32.3) n (%) | Adverse drug reactions: Pruritus (Total N = 65, All grade): 13 (20.0) n (%) | Adverse drug reactions: Pyrexia (Total N = 65, All grade): 17 (26.2) n (%) | Adverse drug reactions: Rash maculo-papular (Total N = 65, All grade): 58 (89.2) n (%) | Adverse drug reactions: Skin and SC tissue disorders (Total N = 65, All grade): 61 (93.8) n (%) | Adverse drug reactions: Stomatitis (Total N = 65, All grade): 37 (56.9) n (%) | Adverse drug reactions: Vomiting (Total N = 65, All grade): 7 (10.8) n (%) | Adverse drug reactions: WBC count decreased (Total N = 65, All grade): 25 (38.5) n (%) | Adverse events: ALT increased (Total N = 65, All grade): 12 (18.5) n (%) | Adverse events: AST increased (Total N = 65, All grade): 13 (20.0) n (%) | Adverse events: Any events (Total N = 65, All grade): 64 (98.5) n (%) | Adverse events: Blood AP increased (Total N = 65, All grade): 8 (12.3) n (%) | Adverse events: Decreased appetite (Total N = 65, All grade): 19 (29.2) n (%) | Adverse events: Diarrhea (Total N = 65, All grade): 15 (23.1) n (%) | Adverse events: Dry skin (Total N = 65, All grade): 11 (16.9) n (%) | Adverse events: GGT increased (Total N = 65, All grade): 11 (16.9) n (%) | Adverse events: GI disorders (Total N = 65, All grade): 51 (78.5) n (%) | Adverse events: General disorders and administration site conditions (Total N = 65, All grade): 39 (60.0) n (%) | Adverse events: Hyperglycemia (Total N = 65, All grade): 30 (46.2) n (%) | Adverse events: Investigations (Total N = 65, All grade): 42 (64.6) n (%) | Adverse events: Metabolism and nutrition disorders (Total N = 65, All grade): 44 (67.7) n (%) | Adverse events: Nausea (Total N = 65, All grade): 21 (32.3) n (%) | Adverse events: Neutrophil count decreased (Total N = 65, All grade): 21 (32.3) n (%) | Adverse events: Pruritus (Total N = 65, All grade): 13 (20.0) n (%) | Adverse events: Pyrexia (Total N = 65, All grade): 24 (36.9) n (%) | Adverse events: Rash maculo-papular (Total N = 65, All grade): 58 (89.2) n (%) | Adverse events: Skin and SC tissue disorders (Total N = 65, All grade): 61 (93.8) n (%) | Adverse events: Stomatitis (Total N = 65, All grade): 38 (58.5) n (%) | Adverse events: Vomiting (Total N = 65, All grade): 13 (20.0) n (%) | Adverse events: WBC count decreased (Total N = 65, All grade): 25 (38.5) n (%) | Adverse drug reactions: ALT increased (Total N = 65, ≥ Grade 3): 2 (3.1) n (%) | Adverse drug reactions: AST increased (Total N = 65, ≥ Grade 3): 0 (0.0) n (%) | Adverse drug reactions: Any events (Total N = 65, ≥ Grade 3): 39 (60.0) n (%) | Adverse drug reactions: Blood AP increased (Total N = 65, ≥ Grade 3): 0 (0.0) n (%) | Adverse drug reactions: Decreased appetite (Total N = 65, ≥ Grade 3): 0 (0.0) n (%) | Adverse drug reactions: Diarrhea (Total N = 65, ≥ Grade 3): 0 (0.0) n (%) | Adverse drug reactions: Dry skin (Total N = 65, ≥ Grade 3): 0 (0.0) n (%) | Adverse drug reactions: GGT increased (Total N = 65, ≥ Grade 3): 5 (7.7) n (%) | Adverse drug reactions: GI disorders (Total N = 65, ≥ Grade 3): 1 (1.5) n (%) | Adverse drug reactions: General disorders and administration site conditions (Total N = 65, ≥ Grade 3): 0 (0.0) n (%) | Adverse drug reactions: Hyperglycemia (Total N = 65, ≥ Grade 3): 11 (16.9) n (%) | Adverse drug reactions: Investigations (Total N = 65, ≥ Grade 3): 20 (30.8) n (%) | Adverse drug reactions: Metabolism and nutrition disorders (Total N = 65, ≥ Grade 3): 11 (16.9) n (%) | Adverse drug reactions: Nausea (Total N = 65, ≥ Grade 3): 0 (0.0) n (%) | Adverse drug reactions: Neutrophil count decreased (Total N = 65, ≥ Grade 3): 9 (13.8) n (%) | Adverse drug reactions: Pruritus (Total N = 65, ≥ Grade 3): 0 (0.0) n (%) | Adverse drug reactions: Pyrexia (Total N = 65, ≥ Grade 3): 0 (0.0) n (%) | Adverse drug reactions: Rash maculo-papular (Total N = 65, ≥ Grade 3): 23 (35.4) n (%) | Adverse drug reactions: Skin and SC tissue disorders (Total N = 65, ≥ Grade 3): 24 (36.9) n (%) | Adverse drug reactions: Stomatitis (Total N = 65, ≥ Grade 3): 1 (1.5) n (%) | Adverse drug reactions: Vomiting (Total N = 65, ≥ Grade 3): 0 (0.0) n (%) | Adverse drug reactions: WBC count decreased (Total N = 65, ≥ Grade 3): 8 (12.3) n (%) | Adverse events: ALT increased (Total N = 65, ≥ Grade 3): 2 (3.1) n (%) | Adverse events: AST increased (Total N = 65, ≥ Grade 3): 1 (1.5) n (%) | Adverse events: Any events (Total N = 65, ≥ Grade 3): 44 (67.7) n (%) | Adverse events: Blood AP increased (Total N = 65, ≥ Grade 3): 1 (1.5) n (%) | Adverse events: Decreased appetite (Total N = 65, ≥ Grade 3): 1 (1.5) n (%) | Adverse events: Diarrhea (Total N = 65, ≥ Grade 3): 1 (1.5) n (%) | Adverse events: Dry skin (Total N = 65, ≥ Grade 3): 0 (0.0) n (%) | Adverse events: GGT increased (Total N = 65, ≥ Grade 3): 8 (12.3) n (%) | Adverse events: GI disorders (Total N = 65, ≥ Grade 3): 4 (6.2) n (%) | Adverse events: General disorders and administration site conditions (Total N = 65, ≥ Grade 3): 0 (0.0) n (%) | Adverse events: Hyperglycemia (Total N = 65, ≥ Grade 3): 11 (16.9) n (%) | Adverse events: Investigations (Total N = 65, ≥ Grade 3): 24 (36.9) n (%) | Adverse events: Metabolism and nutrition disorders (Total N = 65, ≥ Grade 3): 13 (20.0) n (%) | Adverse events: Nausea (Total N = 65, ≥ Grade 3): 0 (0.0) n (%) | Adverse events: Neutrophil count decreased (Total N = 65, ≥ Grade 3): 9 (13.8) n (%) | Adverse events: Pruritus (Total N = 65, ≥ Grade 3): 0 (0.0) n (%) | Adverse events: Pyrexia (Total N = 65, ≥ Grade 3): 0 (0.0) n (%) | Adverse events: Rash maculo-papular (Total N = 65, ≥ Grade 3): 23 (35.4) n (%) | Adverse events: Skin and SC tissue disorders (Total N = 65, ≥ Grade 3): 24 (36.9) n (%) | Adverse events: Stomatitis (Total N = 65, ≥ Grade 3): 1 (1.5) n (%) | Adverse events: Vomiting (Total N = 65, ≥ Grade 3): 0 (0.0) n (%) | Adverse events: WBC count decreased (Total N = 65, ≥ Grade 3): 8 (12.3) n (%) | Patients who developed AEs related to skin disorders (all treated patients): 93.8% | Patients with maculopapular rash (all treated patients): 89.2% | Patients who discontinued because of AEs (dose level 4 (24 mg intermittent administration)): four patients | Recommended dose (RD) (intermittent dosing (4 days on/3 days off)): 24 mg | Tolerability (once daily up to 16 mg/day and intermittent dosing of 24 mg/day): well tolerated | Maculopapular rash grade ≥ 3 (printed as % of patients with this AE): 35.4%
